According to patent publication US11384078B2, “5,6-fused-bicyclic compounds and compositions for the treatment of parasitic diseases” (NOVARTIS AG, priority 2017, dated 2022):
Like-named read-outs stand apart in the source and are kept apart here.

Assays:
Type in all cases: cell-based
[1] = test system: Leishmania donovani axenic amastigote; assay: In vitro assay for growth inhibition of Leishmania donovani axenic amastigote (Cell TiterGlo luminescence); details: Leishmania donovani, L. donovani axenic amastigotes in vitro; read-out: L. donovani amastigotes EC50
Outline: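 Compound-treated wells received 9600 axenic amastigotes in RPMI 1640-based medium at pH 5.5 (37 °C, 5% CO2). Growth measured as ATP luminescence (CellTiter-Glo) after 2-day incubation; DMSO and reference compounds served as controls.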

[2] = test system: L. donovani HU3 strain in mouse peritoneal macrophages; assay: Assay for inhibition of parasitemia of Leishmania donovani in mouse macrophages (SYBR Green nuclei count, high-content imaging); details: Leishmania donovani, Peritoneal macrophage, L. donovani in mouse peritoneal macrophages; read-out: L. donovani in Mouse Macrophages EC50
Outline: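 Parasite numbers were counted from SYBR Green-stained nuclei imaged by high-content microscopy after paraformaldehyde fixation and Triton permeabilization. Before this, compound was applied for 5 days at 37° C to BALB/c peritoneal macrophages (2×10^4/well) that had been exposed 24 h to 4×10^5 L. donovani HU3 amastigotes harvested from infected mouse spleens.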

[3] = test system: Trypanosoma cruzi amastigotes cultured in 3T3 fibroblast cells; assay: Assay for growth inhibition of kinetoplastid parasite Trypanosoma cruzi (beta-galactosidase Tulahuen strain, CPRG readout); details: Trypanosoma cruzi, Fibroblast, T. cruzi amastigotes in 3T3 fibroblast cells; read-out: Buckner infectious T. cruzi EC50
Outline: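 3T3 fibroblasts (1,000 cells/well) plated overnight, treated with compound in DMSO, then infected with 10,000 Lac-Z-expressing Tulahuen trypomastigotes. After 6 days, 0.6 mM CPRG with 0.6% NP-40 added for 2 h at room temperature; absorbance gives relative intracellular amastigote numbers. Benznidazole and nifurtimox serve as positive controls.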

[4] = test system: Trypanosoma brucei brucei (Lister 427) strain; assay: Assay for growth inhibition against Trypanosoma brucei brucei (Cell TiterGlo ATP luminescence); details: T. brucei brucei (Lister 427), read-out: T. Brucei (HAT) EC50
Outline: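 Growth read-out is cellular ATP by CellTiter-Glo luminescence, measured 30 min after reagent addition, following 2-day incubation at 37 °C in CO2. Parasites (10,000/mL, HMI-9 plus 10% FBS and 10% serum plus) faced 10 threefold dilutions in duplicate; IC50 taken as 50% growth inhibition versus untreated.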

| SMILES | EC50 [1] [nM] | EC50 [2] [nM] | EC50 [3] [nM] | EC50 ([4]; Trypanosoma brucei) [nM] | EC50 [4] [nM] |
| --- | --- | --- | --- | --- | --- |
| CC(C)(C)c1cnc2nn(-c3cc(NC(=O)N4CC(F)(F)C4)ccc3F)cc2c1 [Compound 33, N-(3-{5-tert-butyl-2H-pyrazolo[3,4-b]pyridin-2-yl}-4-fluorophenyl)-3,3-difluoroazetidine-1-carboxamide] | 290 | 560 | 720 | 280 | – |
| CC(C)c1cnc2nn(-c3cc(NC(=O)c4cnc(C5CC5)o4)ccc3F)cc2c1 [Compound 75, 2-cyclopropyl-N-{4-fluoro-3-[5-(propan-2-yl)-2H-pyrazolo[3,4-b]pyridin-2-yl]phenyl}-1,3-oxazole-5-carboxamide] | 200 | 170 | 120 | 170 | – |
| O=C(Nc1ccc(F)c(-n2cc3cc(C4CCOCC4)cnc3n2)c1)N1CC(F)C1 [Compound 148, 3-fluoro-N-{4-fluoro-3-[5-(oxan-4-yl)-2H-pyrazolo[3,4-b]pyridin-2-yl]phenyl}azetidine-1-carboxamide] | 8.1 | 12 | 14 | < 23 | – |
| CCNc1cnc2nn(-c3cc(NC(=O)N4CC(F)C4)ccc3F)cc2c1 [Compound 199, N-{3-[5-(ethylamino)-2H-pyrazolo[3,4-b]pyridin-2-yl]-4-fluorophenyl}-3-fluoroazetidine-1-carboxamide] | 502 | 21 | 24 | 5 | – |
| Cc1cnc(C(=O)Nc2ccc(F)c(-n3cc4cc(C(C)C)cnc4n3)c2)cn1 [Compound 65, N-{4-fluoro-3-[5-(propan-2-yl)-2H-pyrazolo[3,4-b]pyridin-2-yl]phenyl}-5-methylpyrazine-2-carboxamide] | 1000 | 1200 | 960 | 1400 | – |
| CC(=O)N1CCC1c1cnc2nn(-c3cc(NC(=O)N4CC(F)C4)ccc3F)cc2c1 (centres unmarked) [Compound 267, N-(3-(5-(1-acetylazetidin-2-yl)-2H-pyrazolo[3,4-b]pyridin-2-yl)-4-fluorophenyl)-3-fluoroazetidine-1-carboxamide] | 1710 | 13800 | 9400 | 81 | – |
| O=C(Nc1ccc(F)c(-n2cc3cc(N4CC(F)(F)C4)cnc3n2)c1)N1CCC1 [Compound 290, N-{3-[5-(3,3-difluoroazetidin-1-yl)-2H-pyrazolo[3,4-b]pyridin-2-yl]-4-fluorophenyl)azetidine-1-carboxamide] | 7 | 4 | 4 | – | 4 |
| O=C(Nc1ccc(F)c(-n2cc3cc(N4CCCC4)cnc3n2)c1)c1ccco1 [Compound 141, N-{4-fluoro-3-[5-(pyrrolidin-1-yl)-2H-pyrazolo[3,4-b]pyridin-2-yl]phenyl}furan-2-carboxamide] | 80 | 12 | 22 | < 23 | – |
| Cc1nc(C)c(C(=O)Nc2ccc(F)c(-n3cc4cc(N5CCC5)cnc4n3)c2)o1 [Compound 155, N-{3-[5-(azetidin-1-yl)-2H-pyrazolo[3,4-b]pyridin-2-yl]-4-fluorophenyl}-2,4-dimethyl-1,3-oxazole-5-carboxamide] | 53 | 22 | 18 | < 23 | – |
| Cc1nc(C(F)(F)F)oc1C(=O)Nc1ccc(F)c(-n2cc3cc(C(C)C)cnc3n2)c1 [Compound 78, N{4-fluoro-3-[5-(propan-2-yl)-2H-pyrazolo[3,4-b]pyridin-2-yl]phenyl}-4-methyl-2-(trifluoromethyl)-1,3-oxazole-5-carboxamide] | 800 | 870 | 450 | 530 | – |
| Cc1ncc(C(=O)Nc2ccc(F)c(-n3cc4cc(C(C)C)cnc4n3)c2)o1 [Compound 83, N-{4-fluoro-3-[5-(propan-2-yl)-2H-pyrazolo[3,4-b]pyridin-2-yl]phenyl}-2-methyl-1,3-oxazole-5-carboxamide] | 14 | 7 | 7.3 | < 23 | – |
| CC(C)CCc1cnc2nn(-c3cc(NC(=O)N4CC(F)(F)C4)ccc3F)cc2c1 [Compound 38, 3,3-difluoro-N-{4-fluoro-3-[5-(3-methylbutyl)-2H-pyrazolo[3,4-b]pyridin-2-yl]phenyl}azetidine-1-carboxamide] | 31 | 33 | 62 | 24 | – |
| CCCC(C)c1cnc2nn(-c3cc(NC(=O)N4CCC4)ccc3F)cc2c1 (centres unmarked) [Compound 95, N-{4-fluoro-3-[5-(pentan-2-yl)-2H-pyrazolo[3,4-b]pyridin-2-yl]phenyl}azetidine-1-carboxamide] | 420 | 350 | 170 | 85 | – |
| O=C(Nc1ccnc(-n2cc3cc(-c4ccccn4)cnc3n2)c1)N1CC(F)(F)C1 [Compound 281, 3,3-difluoro-N-(2-(5-(pyridin-2-yl)-2H-pyrazolo[3,4-b]pyridin-2-yl)pyridin-4-yl)azetidine-1-carboxamide] | 9 | 26 | 15 | 14 | – |
| CN(C)c1cnc2nn(-c3cc(NC(=O)N4CCC4)ccc3F)cc2c1 [Compound 170, N-{3-[5-(dimethylamino)-2H-pyrazolo[3,4-b]pyridin-2-yl]-4-fluorophenyl}azetidine-1-carboxamide] | 8 | 11 | 4.6 | < 23 | – |
| Cc1nc(C(=O)Nc2ccc(F)c(-n3cc4cc(C(C)C)cnc4n3)c2)c(C(F)(F)F)o1 [Compound 68, N-{4-fluoro-3-[5-(propan-2-yl)-2H-pyrazolo[3,4-b]pyridin-2-yl]phenyl}-2-methyl-5-(trifluoromethyl)-1,3-oxazole-4-carboxamide] | 2200 | 2800 | 160 | 510 | – |
| O=C(Nc1ccc(F)c(-n2cc3cc(-c4ccc(F)cn4)cnc3n2)c1)N1CC(F)C1 [Compound 329, 3-fluoro-N-{4-fluoro-3-[5-(5-fluoropyridin-2-yl)-2H-pyrazolo[3,4-b]pyridin-2-yl]phenyl}azetidine-1-carboxamide] | 1 | 2 | 1 | 2 | – |
| CN(C)c1cnc2nn(-c3cc(NC(=O)N4CC[C@@H](F)C4)ccc3F)cc2c1 [Compound 133, (3R)-N-{3-[5-(dimethylamino)-2H-pyrazolo[3,4-b]pyridin-2-yl]-4-fluorophenyl}-3-fluoropyrrolidine-1-carboxamide] | 12 | 8 | 5.9 | < 23 | – |
| CC(C)(C)Cc1cnc2nn(-c3cc(NC(=O)c4ccco4)ccc3F)cc2c1 [Compound 59, N-{3-[5-(2,2-dimethylpropyl)-2H-pyrazolo[3,4-b]pyridin-2-yl]-4-fluorophenyl}furan-2-carboxamide] | 68 | 21 | 4.7 | < 23 | – |
| O=C(Nc1ccc(F)c(-n2cc3cc(C4CCOCC4)cnc3n2)c1)N1CC(F)(F)C1 [Compound 165, 3,3-difluoro-N-{4-fluoro-3-[5-(oxan-4-yl)-2H-pyrazolo[3,4-b]pyridin-2-yl]phenyl}azetidine-1-carboxamide] | 10 | 10 | 40 | < 23 | – |
